Counter-ions that a name gives are not always drawn. Like-named read-outs stand apart in the source and are kept apart here.
Tests used:
[1] = test system: T. vaginalis CDC reference strain 085 (metronidazole-resistant); test: IC50 assay, tritiated thymidine incorporation, 48 h, metronidazole-resistant strain 085; assay type: cell-based, Trichomonas vaginalis
Procedure: (§1) CDC reference strains 085 and 520 that are metronidazole resistant and sensitive, respectively, were maintained at 37° C. in Diamond's trypticase-yeast-maltose medium (TYM; pH 6.0). Metronidazole, tinidazole, pentamidine, and berenil were purchased from Sigma Chemical Co. (St. Louis, Mo., United States of America). Compound 1, see Das, B. P. and D. W. Boykin, J. Med. Chem., 20, 531-536 (1977); Compound 2, see Boykin, D. W., et al., Bioorganic and Med. Chem. Lett., 6:3017-3020 (1996); Compound 3 and Compound 4, see Boykin, D. W., et al., J. Med. Chem., 41, 124-129 (1998); Compound 6, see Francesconi, I., et al., J. Med. Chem., 42, 2260-2265 (1999); Compound 5, see Stephens, C., et al., J. Med. Chem., 44, 1741-1748 (2001); and Compound 9, see Mallena, S. et al., J. Am. Chem. Soc., 126, 13659-13669 (2004); were synthesized as previously reported. Purity was determined by NMR and TLC. The syntheses of 7 and 8 are outlined below. See also Crowell, A. L., et al., Antimicrob. Agents Chemother., 48, 3602-3605 (2004), which is incorporated herein by reference in its entirety.
(§2) Compounds were dissolved in dimethyl sulfoxide (DMSO, Sigma) and further diluted with Diamond's TYM media to reach assay concentrations. Two types of assays were performed on the cationic compounds being evaluated. An initial screen was performed using the standard MLC assay, see Crowell, A. L., et al., Antimicrob. Agents Chemother., 47, 1407-1409 (2003); Meingassner, J. G. and J. Thurner, Antimicrob. Agents Chemother., 15, 254-257 (1979), with a maximum concentration of 20 μM for the test compounds. After 48 h of incubation at 37° C., plates were examined using an inverted phase-contrast microscope. The lowest drug concentration at which no motile trichomonads were observed was recorded as the MLC. Each compound was tested at least twice under both aerobic and anaerobic conditions. Anaerobic conditions were generated using a GASPAK™ jar and CO2-generating GASPAK™ Plus anaerobic system envelopes (Becton Dickinson, Sparks, Md., United States of America) and monitored with GASPAK™ disposable anaerobic indicator strips (Becton Dickinson). […] To further evaluate the compounds' activity, a second type of assay was used to determine the concentration at which 50% of the parasite growth was inhibited (IC50). In these assays, 0.5 μCi of tritiated thymidine (Perkin-Elmer, Boston, Mass., United States of America) was added to each well of a standard assay at the initiation of culture. At 48 h of incubation under either aerobic or anaerobic conditions, cells were harvested onto glass fiber filters (Wallac, Turku, Finland) using a TOMTEC™ cell harvester (Hamden, Conn., United States of America). Incorporated thymidine was detected using BETAPLATE™ (Wallac) scintillation fluid and plate reader. The resulting counts per minute over the compound's concentration range were utilized to calculate IC50s using GRAPHPAD™ PRISM™ (GraphPad Software, Inc., San Diego, Calif., United States of America).

[2] = test system: T. vaginalis CDC reference strain 520 (metronidazole-sensitive); test: IC50 assay, tritiated thymidine incorporation, 48 h, metronidazole-sensitive strain 520; assay type: cell-based, Trichomonas vaginalis; settings: for IC50: Trichomonas vaginalis
Procedure: as §1, §2

T. vaginalis = test: In vitro assays against T. vaginalis, overall statement in words; assay type: cell-based, Trichomonas vaginalis
Procedure: as §2

[3] = test system: different protozoal infection; settings: experimental model; cited from earlier work
[4] = test system: trichomoniasis infections; settings: cited from earlier work
[5] = metronidazole-sensitive strain 520, aerobic, 48 h
[6] = metronidazole-sensitive strain 520, anaerobic, 48 h
[7] = metronidazole-resistant strain 085, aerobic, 48 h
[8] = metronidazole-resistant strain 085, anaerobic, 48 h
[9] = Trichomonas vaginalis, 48 h, read-out: IC50 values (μM ± SEM) 085 aerobic
[10] = Trichomonas vaginalis, 48 h, read-out: IC50 values (μM ± SEM) 085 anaerobic
[11] = 48 h, read-out: IC50 values (μM ± SEM) 520 aerobic
[12] = 48 h, read-out: IC50 values (μM ± SEM) 520 anaerobic
[13] = Trichomonas vaginalis, metronidazole-resistant strain 085, aerobic, 48 h, read-out: IC50 values (μM ± SEM) 085 aerobic
[14] = Trichomonas vaginalis, metronidazole-resistant strain 085, anaerobic, 48 h, read-out: IC50 values (μM ± SEM) 085 anaerobic
[15] = metronidazole-sensitive strain 520, aerobic, 48 h, read-out: IC50 values (μM ± SEM) 520 aerobic
[16] = metronidazole-sensitive strain 520, anaerobic, 48 h, read-out: IC50 values (μM ± SEM) 520 anaerobic

Row | Compound | IC50 values (μM ± SEM) 520 aerobic [2, 5] | IC50 values (μM ± SEM) 520 anaerobic [2, 6] | IC50 values (μM ± SEM) 085 anaerobic [1, 8] | IC50 [1, 9] | IC50 [1, 10] | IC50 [2, 11] | IC50 [2, 12] | effectiveness against T. vaginalis in vitro (T. vaginalis) | also measured
1 | 4,4′-Bis{2-[(4-amidino)benzimidazolyl]}biphenyl tetrahydrochloride [Compound 7] | no effect | no effect |  |  |  |  |  | effective anti-trichomonads | activity against metronidazole-resistant 085 strain [1]: has activity; IC50 ([1]; metronidazole-resistant strain 085, aerobic, 48 h, read-out: IC50 values (μM ± SEM) 085 aerobic): 7.79 ± 4.2 µM; IC50 ([1]; metronidazole-resistant strain 085, anaerobic, 48 h, read-out: IC50 values (μM ± SEM) 085 anaerobic): 25.3 ± 43.1 µM; activity against metronidazole-sensitive 520 isolate [2]: not
2 | CC(C)NC(=N)c1ccc2nc(-c3ccc4oc(-c5nc6ccc(C(=N)NC(C)C)cc6[nH]5)cc4c3)[nH]c2c1 (as salt: hydrochloride) [Compound 8, 2,5-Bis{2-[5-(N-isopropylamidino)benzimidazoyl]}benzo[b]furan tetrahydrochloride] |  |  |  |  |  |  |  |  | melting point: 285 to 290 °C
3 | CC(=O)NCC(=O)O.CC(=O)NCC(=O)O.N=C(N)c1ccc(N=NNc2ccc(C(=N)N)cc2)cc1 [Berenil, reference compound] | no effect | no effect | no effect |  |  |  |  | not effective | IC50 values (μM ± SEM) 085 aerobic [1, 7]: no effect
4 | N=C(N)c1ccc(-c2ccc(-c3ccc(C(=N)N)cc3)o2)cc1 [Compound 1, 2,5-Bis(4-amidinophenyl)furan] |  |  |  | 8.12 ± 2.45 µM | 18.6 ± 19.8 µM | 18.6 ± 6.43 µM | 57.9 ± 19.6 µM |  | effectiveness versus metronidazole and tinidazole against resistant strain 085 ([1]; aerobic conditions): clearly more effective; activity against metronidazole-sensitive 520 isolate [2]: good activity
5 | CONC(=N)c1ccc(-c2ccc(-c3ccc(C(=N)NOC)cc3)o2)cc1 [Compound 2, 2,5-Bis[4-(O-methyloxyamidino)phenyl]furan] | no effect | no effect | no effect | 39.1 ± 25.1 µM |  |  |  | generally ineffective | 
6 | CC(C)NC(=N)c1ccc(-c2ccc(-c3ccc(C(=N)NC(C)C)cc3)o2)cc1 [Compound 3, 2,5-Bis[4-(N-isopropylamidino)phenyl]furan] |  |  |  | 6.44 ± 3.89 µM | 9.41 ± 7.92 µM | 6.6 ± 1.76 µM | 3.91 ± 1.06 µM |  | 
7 | N=C(NC1CCCCC1)c1ccc(-c2ccc(-c3ccc(C(=N)NC4CCCCC4)cc3)o2)cc1 [Compound 4, 2,5-Bis[4-(N-cyclohexylamidino)phenyl]-furan] |  |  |  | 22.4 ± 13.7 µM | 10.2 ± 8.47 µM | 15.9 ± 0.74 µM | 13.9 ± 3.74 µM |  | 
8 | Cc1ncc([N+](=O)[O-])n1CCO [Metronidazole, reference compound] |  |  |  |  |  |  |  |  | IC50 [1, 13]: 303 ± 22.2 µM; IC50 [1, 14]: 12.3 ± 23.8 µM; IC50 [2, 15]: 18.2 ± 4.25 µM; IC50 [2, 16]: 1.89 ± 0.77 µM; infections successfully treated [4]: 90-95%
9 | CCS(=O)(=O)CCn1c([N+](=O)[O-])cnc1C [Tinidazole, reference compound] |  |  |  |  |  |  |  |  | IC50 [1, 13]: 45.1 ± 5.38 µM; IC50 [1, 14]: 4.81 ± 1.17 µM; IC50 [2, 15]: 1.48 ± 0.12 µM; IC50 [2, 16]: 0.004 µM

Further lines, with some results ahead:

Row | IC50 values (μM ± SEM) 520 aerobic [2, 5] | IC50 values (μM ± SEM) 520 anaerobic [2, 6] | IC50 values (μM ± SEM) 085 anaerobic [1, 8] | IC50 [1, 9] | IC50 [1, 10] | IC50 [2, 11] | IC50 [2, 12] | Compound | effectiveness against T. vaginalis in vitro (T. vaginalis) | also measured
10 | no effect | no effect | no effect |  |  |  |  | N=C(N)Nc1ccc(-c2ccc(-c3ccc(NC(=N)N)cc3)o2)cc1 [Compound 5, 2,5-Bis-(4-guanidinophenyl)furan] | not effective | IC50 values (μM ± SEM) 085 aerobic [1, 7]: no effect
11 | no effect | no effect | no effect |  |  |  |  | N=C(N)c1ccc(-c2coc(-c3ccc(C(=N)N)cc3)c2)cc1 [Compound 6, 3,5-Bis(4-amidophenyl)furan] | not effective | IC50 values (μM ± SEM) 085 aerobic [1, 7]: no effect
12 |  |  |  | 7.27 ± 3.76 µM | 37.6 ± 43.9 µM | 44.7 ± 9.33 µM | 143 ± 127 µM | CC(C)NC(=N)c1ccc2nc(-c3ccc4oc(-c5nc6ccc(C(=N)NC(C)C)cc6[nH]5)cc4c3)[nH]c2c1 [Compound 8, 2,5-Bis{2-[5-(N-isopropylamidino)benzimidazoyl]}benzo[b]furan tetrahydrochloride] | effective anti-trichomonads | 
13 |  |  |  | 0.27 ± 0.04 µM | 0.5 ± 0.42 µM | 0.98 ± 0.19 µM | 1.24 ± 0.39 µM | N=C(N)c1ccc(-c2ccc(-c3nc4ccc(C(=N)N)cc4[nH]3)s2)cc1 [Compound 9, 2-(4-Amidinophenyl)-5-[2-(5-amidinobenzimidazoyl)]thiophene] | most effective dication | IC50 ([1]; Trichomonas vaginalis, read-out: IC50 values): ≤ 1 µM; IC50 ([2]; read-out: IC50 values): ≤ 1 µM; in vivo treatment of a different protozoal infection [3]: successfully used; toxicity to the host [3]: without overt evidence of toxicity
14 | no effect | no effect | no effect |  |  |  |  | N=C(N)c1ccc(OCCCCCOc2ccc(C(=N)N)cc2)cc1 [Pentamidine, reference compound] | not effective | IC50 values (μM ± SEM) 085 aerobic [1, 7]: no effect

Source: patent US20070276020A1, “Dicationic Compounds For Activity Against Trichomonas Vaginalis” (priority 2004, published 2007)
